In general, inhibition of growth refers to the relative decrease from the control value, in per cent. Usually melting point stands for the temperature, or range, at which the solid turns liquid.

The test system of data set [1] is Blumeria graminis f. sp. tritici (Erysiphe graminis f. sp. tritici). Nature of the data set: Blumeria graminis f. sp. tritici/Wheat/Leaf Disc Preventative (Powdery Mildew on Wheat). It is filed as in vivo. The note with it: foliar, wheat leaf disc preventative, compared to untreated control. In a few lines:
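Preventative leaf-disc test: percent disease control versus untreated leaf segments read 6-8 days post-application. Compound spray applied to wheat cv. Kanzler segments on agar one day before shaking infected plants over them; incubation at 20° C and 60% rh, 24 h darkness then 12 h light/12 h dark cycles.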

Data set [2] has as its system Plasmopara viticola. Nature of the data set: whole plant or invertebrate. In kind it is in vivo. The note with it: foliar, read-out: control of Plasmopara viticola.
Data set [3] deals with Phaeosphaeria nodorum (Septoria nodorum). Nature of the data set: Phaeosphaeria nodorum (Septoria nodorum)/Wheat/Leaf Disc Preventative (Glume Blotch). In kind it is in vivo. The note with it: Parastagonospora nodorum, foliar, wheat leaf disc preventative, compared to untreated control. In a few lines:
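Preventative test: compound spray first, then spore inoculation after 2 days on cv. Kanzler wheat leaf segments. Incubation in a climate cabinet at 20 °C and 75% rh under a 12 h light/12 h dark cycle. Activity rated as % control relative to untreated discs at 5–7 days post-application.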

Data set [4] concerns Mycosphaerella arachidis (Cercospora arachidicola). Nature of the data set: Mycosphaerella arachidis (Cercospora arachidicola)/Liquid Culture (Early Leaf Spot). It is filed as cell-based. The conditions noted are these: liquid culture, compared to untreated control. Summed up: (§1)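 PDB + cryo-stored conidia; compound in DMSO pre-plated, spore broth added on top.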
In data set [5] the test system is Glomerella lagenarium (Colletotrichum lagenarium). Nature of the data set: Glomerella lagenarium (Colletotrichum lagenarium)/Liquid Culture (Anthracnose). In kind it is cell-based. The note with it: Colletotrichum orbiculare, liquid culture, compared to untreated control.
The subject of data set [6] is Puccinia recondita f. sp. tritici. Nature of the data set: Puccinia recondita f. sp. tritici/Wheat/Leaf Disc Curative (Brown Rust). In kind it is in vivo. The note with it: foliar, wheat leaf disc curative, compared to untreated control. In a few lines:
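Formulated compound, diluted in water, is applied to inoculated wheat cv. Kanzler leaf segments on agar one day post-inoculation (pre-incubation dark, 19° C, 75% rh). After 6-8 days at 19° C, 75% rh and 12 h/12 h light, activity is rated as percent disease control relative to untreated segments.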

In data set [7] the test system is Pyrenophora teres. Nature of the data set: Pyrenophora teres/Barley/Leaf Disc Preventative (Net Blotch). In kind it is in vivo. The conditions noted are these: foliar, 200 ppm, barley leaf disc preventative, compared to untreated control, read-out: control of Pyrenophora teres. From the text:
Barley leaf segments cv. Hasso are placed on agar in a multiwell plate (24-well format) and sprayed with the formulated test compound diluted in water. The leaf segments are inoculated with a spore suspension of the fungus 2 days after application. […] The data are presented as the percentage of disease control of each compound for the biological tests against G. lagenarium (Example B3), P. recondita preventative (Example B13), P. teres (Example B15) and M. graminicola (Example B19) as described above. The testing rates of each biological test is specifically described in table C1 below.

Data set [8] relates to Magnaporthe grisea (Pyricularia oryzae). Nature of the data set: whole plant or invertebrate. In kind it is in vivo. The conditions noted are these: foliar, read-out: control of Magnaporthe grisea.
The test system of data set [9] is Mycosphaerella graminicola (Septoria tritici). Nature of the data set: Mycosphaerella graminicola (Septoria tritici)/Liquid Culture (Septoria Blotch). It is filed as cell-based. The conditions noted are these: Zymoseptoria tritici; 20 ppm; liquid culture; compared to untreated control. Summed up: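 Results given as % disease control: test compound in DMSO was placed in wells first, then potato dextrose broth carrying cryostored fungal conidia was added.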

Data set [10] concerns Phytophthora infestans. Nature of the data set: whole plant or invertebrate. It is filed as in vivo. The note with it: in Solanum lycopersicum, foliar, read-out: control of Phytophthora infestans.
For data set [11], the system named is Puccinia recondita f. sp. tritici. Nature of the data set: Puccinia recondita f. sp. tritici/Wheat/Leaf Disc Preventative (Brown Rust). The note with it: foliar, 200 ppm, wheat leaf disc preventative, compared to untreated control, read-out: control of Puccinia recondita f. sp. tritici. In kind it is in vivo.
Data set [12] has as its system Monographella nivalis (Microdochium nivale). Nature of the data set: Monographella nivalis (Microdochium nivale)/Liquid Culture (Foot Rot Cereals). In kind it is cell-based. The note with it: liquid culture, compared to untreated control. In a few lines: as §1
For data set [13], the system named is Botryotinia fuckeliana (Botrytis cinerea). Nature of the data set: Botryotinia fuckeliana (Botrytis cinerea)/Liquid Culture (Gray Mould). In kind it is cell-based. The conditions noted are these: liquid culture, compared to untreated control. How it is done:
Conidia of the fungus from cryogenic storage are directly mixed into nutrient broth (Vogels broth). After placing a (DMSO) solution of test compound into a microtiter plate (96-well format), the nutrient broth containing the fungal spores is added.

For data set [14], the system named is Phakopsora pachyrhizi. Nature of the data set: Phakopsora pachyrhizi/Soybean/Preventative (Soybean Rust). In kind it is in vivo. The note with it: foliar, 288 h, 200 ppm, soybean leaf disc preventative, compared to untreated control, read-out: control of Phakopsora pachyrhizi.

For `C=C(C)c1cnn(-c2ccc(C)c(O/C(=C\OC)C(=O)OC)c2)n1` [Compound F-11, methyl (Z)-2-[5-(4-isopropenyltriazol-2-yl)-2-methyl-phenoxy]-3-methoxy-prop-2-enoate], the pest or weed control at 200 ppm in data set [1], in data set [2], in [3], in data set [6], in data set [7] and in data set [8] was at least 80% each time. Also, the pest or weed control at 200 ppm in data set [10] and in data set [11] was at least 80% in each case. Besides, the inhibition of growth at 20 ppm in [4], in data set [5], in [9] and in data set [12] was at least 80% throughout.
The compound `CO/C=C(\Oc1cc(-n2cc(C)c(C(F)(F)F)n2)ccc1C)C(=O)OC` [Compound E-75, methyl (Z)-3-methoxy-2-[2-methyl-5-[4-methyl-3-(trifluoromethyl)pyrazol-1-yl]phenoxy]prop-2-enoate] had a melting point of 131 to 134 °C. Also, in data set [1], the pest or weed control at 200 ppm was at least 80%. Also, in data set [2], the pest or weed control at 200 ppm is at least 80%. In data set [3], this compound displayed a pest or weed control at 200 ppm of at least 80%. The compound further registered an inhibition of growth at 20 ppm in [4] of at least 80%. The inhibition of growth at 20 ppm in data set [13] was at least 80%. For the same compound, the pest or weed control at 200 ppm in [7] is at least 80%. The compound also had an inhibition of growth at 20 ppm in data set [9] of at least 80%. In addition, in data set [11], the pest or weed control at 200 ppm is at least 80%. Moreover, the inhibition of growth at 20 ppm in data set [12] was at least 80%.
As to `CO/C=C(\Oc1cc(-n2cc(Cl)c(C3CCCCC3)n2)ccc1C)C(=O)OC` [Compound E-112, methyl (Z)-2-[5-(4-chloro-3-cyclohexyl-pyrazol-1-yl)-2-methyl-phenoxy]-3-methoxy-prop-2-enoate], the melting point fell in the range of 150 to 152 °C. For the same compound, the pest or weed control at 200 ppm in [2] is at least 80%. Further, the pest or weed control at 200 ppm in data set [3] was at least 80%. In [4], the inhibition of growth at 20 ppm was at least 80%. In data set [5], the inhibition of growth at 20 ppm is at least 80%. The same compound registered a pest or weed control at 200 ppm in [6] of at least 80%. In [7], the pest or weed control at 200 ppm was at least 80%. Besides, the pest or weed control at 200 ppm in [8] is at least 80%. This compound also returned an inhibition of growth at 20 ppm in data set [12] of at least 80%.
Turning to `CO/C=C(\Oc1cc(-n2cc(Cl)cn2)ccc1C)C(=O)OC` [Compound E-54, methyl (Z)-2-[5-(4-chloropyrazol-1-yl)-2-methyl-phenoxy]-3-methoxy-prop-2-enoate], the pest or weed control at 200 ppm in data set [1], in [2], in data set [3], in data set [7], in data set [10] and in [11] was at least 80% in each case. Besides, the inhibition of growth at 20 ppm in [4], in data set [5], in data set [13], in data set [9] and in data set [12] was at least 80% each time.
Turning to `CO/C=C(\Oc1cc(-n2ccc(C3CCCCC3)n2)c(F)cc1C)C(=O)OC` [Compound E-114, methyl (Z)-2-[5-(3-cyclohexylpyrazol-1-yl)-4-fluoro-2-methyl-phenoxy]-3-methoxy-prop-2-enoate], the pest or weed control at 200 ppm in [1], in data set [2], in [3], in data set [6], in data set [7] and in [8] was at least 80% each time. Besides, the pest or weed control at 200 ppm in [10] and in data set [11] was at least 80% each time. Also, the inhibition of growth at 20 ppm in data set [4], in data set [5], in data set [9] and in data set [12] was at least 80% throughout.
As for `CO/C=C(\Oc1cc(-n2ccc(I)n2)ccc1C)C(=O)OC` [Compound E-78, methyl (Z)-2-[5-(3-iodopyrazol-1-yl)-2-methyl-phenoxy]-3-methoxy-prop-2-enoate], the melting point was in the range of 156 to 159 °C. The compound also had a pest or weed control at 200 ppm in [1] of at least 80%. In addition, the pest or weed control at 200 ppm in [2] was at least 80%. The same compound gave a pest or weed control at 200 ppm in data set [3] of at least 80%. This compound had an inhibition of growth at 20 ppm in [4] of at least 80%. For the same compound, the inhibition of growth at 20 ppm in data set [5] is at least 80%. For the same compound, the pest or weed control at 200 ppm in [7] is at least 80%. Also, the pest or weed control at 200 ppm in data set [8] is at least 80%. Moreover, the inhibition of growth at 20 ppm in [9] was at least 80%. Besides, the pest or weed control at 200 ppm in data set [10] was at least 80%. Besides, in data set [11], the pest or weed control at 200 ppm was at least 80%. The compound also had an inhibition of growth at 20 ppm in [12] of at least 80%.
The compound `CO/C=C(\Oc1cc(-n2ccc(C(F)(F)Cl)n2)ccc1C)C(=O)OC` [Compound E-118, methyl (Z)-2-[5-[3-[chloro(difluoro)methyl]pyrazol-1-yl]-2-methyl-phenoxy]-3-methoxy-prop-2-enoate] showed a melting point of 146 to 148 °C. For the same compound, the pest or weed control at 200 ppm in [1] is at least 80%. Further, the pest or weed control at 200 ppm in [2] was at least 80%. For the same compound, the pest or weed control at 200 ppm in data set [3] was at least 80%. Besides, the inhibition of growth at 20 ppm in data set [4] was at least 80%. Besides, the inhibition of growth at 20 ppm in data set [5] is at least 80%. In addition, in data set [6], the pest or weed control at 200 ppm is at least 80%. In addition, the pest or weed control at 200 ppm in [7] is at least 80%. The pest or weed control at 200 ppm in data set [8] is at least 80%. For the same compound, in data set [9], the inhibition of growth at 20 ppm was at least 80%. Also, in [10], the pest or weed control at 200 ppm was at least 80%. Also, the pest or weed control at 200 ppm in data set [11] is at least 80%. Besides, in [12], the inhibition of growth at 20 ppm is at least 80%.
In the case of `CC#Cc1ccn(-c2ccc(C)c(O/C(=C\OC)C(=O)OC)c2)n1` [Compound E-2, methyl (Z)-3-methoxy-2-[2-methyl-5-(3-prop-1-ynylpyrazol-1-yl)phenoxy]prop-2-enoate], the melting point lay in the range of 175 to 179 °C. Also, in [2], the pest or weed control at 200 ppm was at least 80%. Moreover, the pest or weed control at 200 ppm in data set [14] was at least 50%. For the same compound, in [3], the pest or weed control at 200 ppm was at least 80%. Further, in data set [4], the inhibition of growth at 20 ppm is at least 80%. Besides, the pest or weed control at 200 ppm in data set [7] is at least 80%. In [8], the pest or weed control at 200 ppm was at least 80%. For the same compound, the inhibition of growth at 20 ppm in data set [9] is at least 80%. Moreover, the pest or weed control at 200 ppm in data set [11] is at least 80%. Further, in [12], the inhibition of growth at 20 ppm is at least 80%.
`CCON=C(C)c1cnn(-c2ccc(C)c(O/C(=C\OC)C(=O)OC)c2)n1` [Compound F-12, methyl (Z)-2-[5-[4-(N-ethoxy-C-methyl-carbonimidoyl)triazol-2-yl]-2-methyl-phenoxy]-3-methoxy-prop-2-enoate] came in with a melting point of 113 to 116 °C. This compound registered a pest or weed control at 200 ppm in [1] of at least 80%. In [2], the pest or weed control at 200 ppm was at least 80%. The compound further displayed a pest or weed control at 200 ppm in data set [3] of at least 80%. This compound also showed an inhibition of growth at 20 ppm in data set [4] of at least 80%. Further, the inhibition of growth at 20 ppm in [5] is at least 80%. This compound yielded a pest or weed control at 200 ppm in data set [6] of at least 80%. Also, the pest or weed control at 200 ppm in [7] is at least 80%. Moreover, in data set [8], the pest or weed control at 200 ppm was at least 80%. Besides, the inhibition of growth at 20 ppm in [9] was at least 80%. For the same compound, the pest or weed control at 200 ppm in data set [10] is at least 80%. For the same compound, the pest or weed control at 200 ppm in [11] was at least 80%. In data set [12], this compound came in with an inhibition of growth at 20 ppm of at least 80%.
